Results as given in article PMC7419507, “In vitro Cas9-assisted editing of modular polyketide synthase genes to produce desired natural product derivatives” (Nature Communications, 2020).
“And” between values parts separate entries of the source, which are not always exact repeats. Identical values can stand only once.

Key:
[1] = Cytotoxicity assay (CellTiter-Glo, 72 h), SKOV-3; format: cell-based, human; details: human, raw replicate data, read-out: SKOV3 viability (%)
How it was run: (§1)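 1000 cells/well; 4 h settle, then 2-fold serial dilutions (0.5% DMSO final), 72 h, 37 °C/5% CO2. Read-out: CellTiter-Glo luminescence. Media: RPMI1640 + 10% FBS (Jurkat, MESO-1; Jurkat also Glutamax), DMEM + 10% FBS (SKOV-3).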

[2] = test system: human ovarian adenocarcinoma SKOV-3 cells; test: Cytotoxicity assay (CellTiter-Glo, 72 h), SKOV-3; format: cell-based; details: raw replicate data
How it was run: as §1

[3] = Cytotoxicity assay (CellTiter-Glo, 72 h), MESO-1; format: cell-based; details: human, MESO-1 malignant pleural mesothelioma cells, raw replicate data, read-out: MESO1 viability (%)
How it was run: as §1

[4] = test system: malignant pleural mesothelioma MESO-1 cells; test: Cytotoxicity assay (CellTiter-Glo, 72 h), MESO-1; format: cell-based; details: raw replicate data
How it was run: as §1

[5] = test system: Jurkat, SKOV-3 and MESO-1 cells; test: Cytotoxicity assay, statements for all tested cell lines together; format: cell-based
How it was run: as §1

[6] = Cytotoxicity assay (CellTiter-Glo, 72 h), Jurkat; format: cell-based; details: human, Jurkat cells (T lymphoma), raw data (replicates)
How it was run: as §1

T lymphoma Jurkat cells = test: Cytotoxicity assay (CellTiter-Glo, 72 h), Jurkat; format: cell-based; details: raw data (replicates)
How it was run: as §1

## COC1CC2CCC(C)C(O)(O2)C(=O)C(=O)N2CCCCC2C(=O)OC(C(C)CC2CCC(O)C(OC)C2)CC(=O)C(C)C=C(C)C(O)C(OC)C(=O)C(C)CC(C)C=CCCC=C1C (centres unmarked) [Compound 15, 19,20-dihidro-rapamycin]
[1]; SKOV-3 cells (ovarian adenocarcinoma), conc 9.53674e-5 uM
  viability at 72 h, 9.53674e-05 uM: 106%
[1]; SKOV-3 cells (ovarian adenocarcinoma), conc 0.000190735 uM
  viability at 72 h, 0.000190735 uM: 101%
[1]; SKOV-3 cells (ovarian adenocarcinoma), conc 0.00038147 uM
  viability at 72 h, 0.00038147 uM: 102%
[1]; SKOV-3 cells (ovarian adenocarcinoma), conc 0.000762939 uM
  viability at 72 h, 0.000762939 uM: 102%
[1]; SKOV-3 cells (ovarian adenocarcinoma), conc 0.00152588 uM
  viability at 72 h, 0.00152588 uM: 105%
[1]; SKOV-3 cells (ovarian adenocarcinoma), conc 0.00305176 uM
  viability at 72 h, 0.00305176 uM: 108%
[1]; SKOV-3 cells (ovarian adenocarcinoma), conc 0.00610352 uM
  viability at 72 h, 0.00610352 uM: 104%
[1]; SKOV-3 cells (ovarian adenocarcinoma), conc 0.012207 uM
  viability at 72 h, 0.012207 uM: 106%
[1]; SKOV-3 cells (ovarian adenocarcinoma), conc 0.0244141 uM
  viability at 72 h, 0.0244141 uM: 102%
[1]; SKOV-3 cells (ovarian adenocarcinoma), conc 0.0488281 uM
  viability at 72 h, 0.0488281 uM: 95.2%
[1]; SKOV-3 cells (ovarian adenocarcinoma), conc 0.0976562 uM
  viability at 72 h, 0.0976562 uM: 99.4%
[1]; SKOV-3 cells (ovarian adenocarcinoma), conc 0.195312 uM
  viability at 72 h, 0.195312 uM: 91%
[1]; SKOV-3 cells (ovarian adenocarcinoma), conc 0.390625 uM
  viability at 72 h, 0.390625 uM: 84.3%
[1]; SKOV-3 cells (ovarian adenocarcinoma), conc 12.5 uM
  viability at 72 h, 12.5 uM: 63.5%
[1]; SKOV-3 cells (ovarian adenocarcinoma), conc 25 uM
  viability at 72 h, 25 uM: 51.1%
[1]; SKOV-3 cells (ovarian adenocarcinoma), conc 50 uM
  viability at 72 h, 50 uM: 4%
[1]; SKOV-3 ovarian adenocarcinoma cells, conc 0.78125 uM
  viability at 72 h, 0.78125 uM: 77.1%
[1]; SKOV-3 ovarian adenocarcinoma cells, conc 1.5625 uM
  viability at 72 h, 1.5625 uM: 85.7%
[1]; SKOV-3 ovarian adenocarcinoma cells, conc 3.125 uM
  viability at 72 h, 3.125 uM: 72.5%
[1]; SKOV-3 ovarian adenocarcinoma cells, conc 6.25 uM
  viability at 72 h, 6.25 uM: 65.8%
[2]; conc 9.53674e-5 uM
  SKOV3 viability (%): 104.4%
[2]; conc 0.000190735 uM
  SKOV3 viability (%): 106.7% and 103.7%
[2]; conc 0.00038147 uM
  SKOV3 viability (%): 104.3% and 105.3%
[2]; conc 0.000762939 uM
  SKOV3 viability (%): 104.7% and 102.3%
[2]; conc 0.00152588 uM
  SKOV3 viability (%): 105.8%
[2]; conc 0.00610352 uM
  SKOV3 viability (%): 104.8% and 103.3%
[2]; conc 0.012207 uM
  SKOV3 viability (%): 100.2% and 102.5%
[2]; conc 0.0244141 uM
  SKOV3 viability (%): 99.1% and 104.1%
[2]; conc 0.0488281 uM
  SKOV3 viability (%): 98.9% and 94.0%
[2]; conc 0.0976562 uM
  SKOV3 viability (%): 97.9% and 101.5%
[2]; conc 0.195312 uM
  SKOV3 viability (%): 91.8% and 87.6%
[2]; conc 0.390625 uM
  SKOV3 viability (%): 93.7% and 87.4%
[2]; conc 0.78125 uM
  SKOV3 viability (%): 82.2% and 82.5%
[2]; conc 1.5625 uM
  SKOV3 viability (%): 81.5% and 77.5%
[2]; conc 3.125 uM
  SKOV3 viability (%): 73.9% and 77.4%
[2]; conc 6.25 uM
  SKOV3 viability (%): 68.2% and 74.1%
[2]; conc 12.5 uM
  SKOV3 viability (%): 67.0% and 61.2%
[2]; conc 25 uM
  SKOV3 viability (%): 54.3% and 53.4%
[2]; conc 50 uM
  SKOV3 viability (%): 3.9% and 4.5%
[3]; conc 9.53674e-5 uM
  viability at 72 h, 9.53674e-05 uM: 94.1%
[3]; conc 0.000190735 uM
  viability at 72 h, 0.000190735 uM: 92%
[3]; conc 0.00038147 uM
  viability at 72 h, 0.00038147 uM: 98.8%
[3]; conc 0.000762939 uM
  viability at 72 h, 0.000762939 uM: 93.3%
[3]; conc 0.00152588 uM
  viability at 72 h, 0.00152588 uM: 97.7%
[3]; conc 0.00305176 uM
  viability at 72 h, 0.00305176 uM: 89.3%
[3]; conc 0.00610352 uM
  viability at 72 h, 0.00610352 uM: 90.8%
[3]; conc 0.012207 uM
  viability at 72 h, 0.012207 uM: 87.6%
[3]; conc 0.0244141 uM
  viability at 72 h, 0.0244141 uM: 92.1%
[3]; conc 0.0488281 uM
  viability at 72 h, 0.0488281 uM: 82.9%
[3]; conc 0.0976562 uM
  viability at 72 h, 0.0976562 uM: 81.6%
[3]; conc 0.195312 uM
  viability at 72 h, 0.195312 uM: 70.6%
[3]; conc 0.390625 uM
  viability at 72 h, 0.390625 uM: 78.2%
[3]; conc 0.78125 uM
  viability at 72 h, 0.78125 uM: 66.4%
[3]; conc 1.5625 uM
  viability at 72 h, 1.5625 uM: 69.2%
[3]; conc 3.125 uM
  viability at 72 h, 3.125 uM: 67.6%
[3]; conc 6.25 uM
  viability at 72 h, 6.25 uM: 68.9%
[3]; conc 12.5 uM
  viability at 72 h, 12.5 uM: 63.9%
[3]; conc 50 uM
  viability at 72 h, 50 uM: 0.6%
[4]; conc 9.53674e-5 uM
  MESO1 viability (%): 97.4% and 107.3%
[4]; conc 0.000190735 uM
  MESO1 viability (%): 96.0% and 92.6%
[4]; conc 0.00038147 uM
  MESO1 viability (%): 101.5% and 100.0%
[4]; conc 0.000762939 uM
  MESO1 viability (%): 86.7% and 94.3%
[4]; conc 0.00152588 uM
  MESO1 viability (%): 92.8% and 93.2%
[4]; conc 0.00305176 uM
  MESO1 viability (%): 90.6%
[4]; conc 0.00610352 uM
  MESO1 viability (%): 91.6% and 97.1%
[4]; conc 0.012207 uM
  MESO1 viability (%): 80.5%
[4]; conc 0.0244141 uM
  MESO1 viability (%): 89.5% and 86.4%
[4]; conc 0.0488281 uM
  MESO1 viability (%): 83.3% and 88.8%
[4]; conc 0.0976562 uM
  MESO1 viability (%): 82.7% and 83.7%
[4]; conc 0.195312 uM
  MESO1 viability (%): 70.8% and 80.6%
[4]; conc 0.390625 uM
  MESO1 viability (%): 69.4% and 71.4%
[4]; conc 0.78125 uM
  MESO1 viability (%): 68.2% and 67.7%
[4]; conc 1.5625 uM
  MESO1 viability (%): 70.1% and 68.2%
[4]; conc 3.125 uM
  MESO1 viability (%): 66.5%
[4]; conc 6.25 uM
  MESO1 viability (%): 67.5% and 68.1%
[4]; conc 12.5 uM
  MESO1 viability (%): 65.8% and 62.8%
[4]; conc 25 uM
  MESO1 viability (%): 15.9% and 37.2% and 39.7%
[4]; conc 50 uM
  MESO1 viability (%): 0.367% and 0.476%
[5]; Jurkat, SKOV-3 and MESO-1 cells, 72 h
  Effect on cell viability, in words: slightly suppressed the cell viabilities
[5]; relative to rapamycin (1)
  Cytostatic effect, fold lower than that of 1: ~ 100 fold
[6]; conc 9.53674e-5 uM
  viability at 72 h, 9.53674e-05 uM: 98.3%
[6]; conc 0.000190735 uM
  viability at 72 h, 0.000190735 uM: 102%
[6]; conc 0.00038147 uM
  viability at 72 h, 0.00038147 uM: 96.7%
[6]; conc 0.000762939 uM
  viability at 72 h, 0.000762939 uM: 101%
[6]; conc 0.00152588 uM
  viability at 72 h, 0.00152588 uM: 97.4%
[6]; conc 0.00305176 uM
  viability at 72 h, 0.00305176 uM: 94.6%
[6]; conc 0.00610352 uM
  viability at 72 h, 0.00610352 uM: 96.3%
[6]; conc 0.012207 uM
  viability at 72 h, 0.012207 uM: 95.5%
[6]; conc 0.0244141 uM
  viability at 72 h, 0.0244141 uM: 98.5%
[6]; conc 0.0488281 uM
  viability at 72 h, 0.0488281 uM: 84.9%
[6]; conc 0.0976562 uM
  viability at 72 h, 0.0976562 uM: 83.5%
[6]; conc 0.195312 uM
  viability at 72 h, 0.195312 uM: 65.5%
[6]; conc 0.390625 uM
  viability at 72 h, 0.390625 uM: 61.7%
[6]; conc 0.78125 uM
  viability at 72 h, 0.78125 uM: 43.6%
[6]; conc 1.5625 uM
  viability at 72 h, 1.5625 uM: 40.7%
[6]; conc 3.125 uM
  viability at 72 h, 3.125 uM: 28.2%
[6]; conc 6.25 uM
  viability at 72 h, 6.25 uM: 26.6%
[6]; conc 12.5 uM
  viability at 72 h, 12.5 uM: 25.9%
[6]; conc 25 uM
  viability at 72 h, 25 uM: 1%
T lymphoma Jurkat cells; conc 9.53674e-5 uM
  Jurkat viability (%): 103.4% and 100.1%
T lymphoma Jurkat cells; conc 0.000190735 uM
  Jurkat viability (%): 103.2%
T lymphoma Jurkat cells; conc 0.00038147 uM
  Jurkat viability (%): 100.9% and 97.1%
T lymphoma Jurkat cells; conc 0.000762939 uM
  Jurkat viability (%): 96.9%
T lymphoma Jurkat cells; conc 0.00152588 uM
  Jurkat viability (%): 95.1% and 104.8%
T lymphoma Jurkat cells; conc 0.00305176 uM
  Jurkat viability (%): 96.4% and 103.3%
T lymphoma Jurkat cells; conc 0.00610352 uM
  Jurkat viability (%): 98.6% and 98.2%
T lymphoma Jurkat cells; conc 0.012207 uM
  Jurkat viability (%): 89.1% and 95.4%
T lymphoma Jurkat cells; conc 0.0244141 uM
  Jurkat viability (%): 88.3% and 94.3%
T lymphoma Jurkat cells; conc 0.0488281 uM
  Jurkat viability (%): 80.5% and 86.7%
T lymphoma Jurkat cells; conc 0.0976562 uM
  Jurkat viability (%): 80.2% and 77.6%
T lymphoma Jurkat cells; conc 0.195312 uM
  Jurkat viability (%): 65.6% and 66.3%
T lymphoma Jurkat cells; conc 0.390625 uM
  Jurkat viability (%): 56.5% and 56.0%
T lymphoma Jurkat cells; conc 0.78125 uM
  Jurkat viability (%): 41.6% and 42.0%
T lymphoma Jurkat cells; conc 1.5625 uM
  Jurkat viability (%): 32.3% and 35.9%
T lymphoma Jurkat cells; conc 3.125 uM
  Jurkat viability (%): 27.6% and 27.0%
T lymphoma Jurkat cells; conc 6.25 uM
  Jurkat viability (%): 24.6% and 25.7%
T lymphoma Jurkat cells; conc 12.5 uM
  Jurkat viability (%): 23.9% and 25.0%
T lymphoma Jurkat cells; conc 25 uM
  Jurkat viability (%): 1.5% and 1.1%
T lymphoma Jurkat cells; conc 50 uM
  Jurkat viability (%): 0.429% and 0.113% and 0.047%
